Ends that are not written are not given here.

In one assay the test system is E. coli. Nature of the assay: Broth microdilution assay (MIC). It counts as cell-based, Escherichia coli. On the procedure: (§1) In addition to a radial diffusion assay, antibacterial activities of the peptides were also tested by a broth microdilution assay against E. coli and S. aureus. Briefly, bacteria were grown overnight in TSB to the onset of stationary phase at 37°C with shaking at 200 rpm. The cultures were diluted in a fresh TSB to the final concentration of 2 × 10^4 CFU/mL. A stock solution of each peptide was prepared in 0.01% acetic acid at 640 μg/mL. The peptide solution was then serially diluted in 0.01% acetic acid to 2 μg/mL. After 90 μL aliquots of the bacterial suspension were dispensed into each well of a 96-well polypropylene microtiter plate, 10 μL of peptide solution was added. The antibacterial activities of peptides were assessed by measuring visible turbidity in each well of the plate after 18 hours of incubation at 37°C. MIC was expressed as intervals (a to b), where a was the highest concentration tested at which bacteria were still growing and b was the lowest concentration that caused complete growth inhibition.
On the technique in general: Broth dilution looks for growth in wells or tubes with falling amounts of substance.

A further assay deals with S. aureus. Description: Broth microdilution assay (MIC). It counts as cell-based, Staphylococcus aureus. As to the method:
as §1

Setting [1] is: broth microdilution in TSB, 2 × 10^4 CFU/mL, 18 hours at 37°C, visible turbidity, MIC as interval a to b (a highest conc. with growth, b lowest conc. with complete inhibition).

With LHCIALRKK-NH2 [CopN5(22–30)], in the assay on E. coli (setting [1]), the “MIC (μg/mL) E. coli” value fell in the range of 8 to 16 µg/mL. For the same substance, the “MIC (μg/mL) S. aureus” value in the assay on S. aureus (setting [1]) is >64 µg/mL.

For LHLIALRKK-NH2 [CopA1], in the assay with E. coli (18 h), the “MIC (μg/mL) E. coli” value is >64 µg/mL. Moreover, in the assay with S. aureus (18 h), the “MIC (μg/mL) S. aureus” value was >64 µg/mL.

Take LHRIALRKK-NH2 [CopA2]: the “MIC (μg/mL) E. coli” value against E. coli (18 h) was >64 µg/mL. For the same substance, the “MIC (μg/mL) S. aureus” value with S. aureus (18 h) was >64 µg/mL.

For the substance LLCIALRKK-NH2 [CopA3], the “MIC (μg/mL) E. coli” value in the assay on E. coli (18 h) lay in the range of 4 to 8 µg/mL. For the same substance, in the assay on E. coli (statement of the abstract), the “antibacterial activity against Escherichia coli (in words)” value is “potent antibacterial activities”. In the assay on S. aureus (18 h), the “MIC (μg/mL) S. aureus” value was 4 to 8 µg/mL. Moreover, in the assay on S. aureus (statement of the abstract), the “antibacterial activity against Staphylococcus aureus (in words)” value is reported as “potent antibacterial activities”.

LRCIALRKK-NH2 [CopA4]: the “MIC (μg/mL) E. coli” value against E. coli (18 h) fell in the range of 16 to 32 µg/mL. Further, the “MIC (μg/mL) S. aureus” value in the assay on S. aureus (18 h) is >64 µg/mL.
